Like-named read-outs stand apart in the source and are kept apart here.
Experiments:
[1] = Maintenance on mouse skin samples (residual rate by HPLC); assay type: in vitro ADME; conditions: for Maintenance 19 hours after starting incubation: 0.5 g and 2.0 g mouse skin; for Maintenance 19 hours after starting incubation / Residual rate: 0.037M, pH 7.0, 37° C.; for Residual rate: 0.5 g of the skin sample, 40 hours
Protocol: The back skin was depilated and peeled off after sacrificing mice by cervical dislocation at 24 weeks of age.
Each sample was tested in triplicate (n=3) in all of the 4 groups, and mean residual rates were calculated.
HPLC was conducted under the following conditions:
Solvent: methanol-water (20:80, v/v, adjusted to pH 2.5 using phosphoric acid)

[2] = Maintenance in mouse skin extract fluid (residual rate by HPLC); assay type: in vitro ADME; conditions: skin extract fluid 1:1 with 0.1M solution, pH 7.0, 37° C.
Protocol: The skin samples obtained in Evaluation example 5 were weighed, and 2.6 g was added to sodium citrate-phosphate buffer solution (5.2 ml, pH 7.0) and homogenized. The homogenate obtained was used as skin extract fluid.
Each sample was tested in triplicate (n=3) in both groups, and mean residual rates were calculated.
HPLC was conducted under the conditions used in Evaluation example 5.

[3] = Stability (decomposition rate) in acidic, neutral and alkaline aqueous solutions; assay type: physicochemical
[4] = reported; cited from earlier work
[5] = test system: mushroom-derived tyrosinase; conditions: cited from earlier work
[6] = pH 5.5, aqueous solution, 0.045M, 37° C.
[7] = pH 6.5, aqueous solution, 0.045M, 37° C.
[8] = pH 7.5, aqueous solution, 0.045M, 37° C.

Row | Maintenance 19 hours after starting incubation [1] | Residual rate [1] | Maintenance 4 hours after starting incubation [2] | half-life at 0.045 M ([3]; aqueous solution, pH 5.5, over pH 5.5 to 7.5, 37° C., read-out: Half-life in alkaline and acidic regions) | half-life at 0.045 M ([3]; aqueous solution, pH 5.5, pH 5.5, aqueous solution, 0.045M, 37° C., α-arbutin determined after 69 hrs, read-out: Half-life (converted)) | half-life at 0.045 M ([3]; aqueous solution, pH 6.5, pH 6.5, aqueous solution, 0.045M, 37° C., read-out: Half-life (converted)) | half-life at 0.045 M ([3]; aqueous solution, pH 7.5, pH 7.5, aqueous solution, 0.045M, 37° C., read-out: Half-life (converted)) | Decomposition rate constant [3, 6] | Decomposition rate constant [3, 7] | Decomposition rate constant [3, 8] | half-life at 0.045 M ([3]; buffer, pH 6.5) | half-life at 0.045 M ([3]; buffer, pH 7.5) | Residual rate, times larger than that of β-arbutin ([1]; 2.0 g of the skin sample, 40 hours after incubation) | Residual rate compared with the β-arbutin group ([2]; 20 hours) | SMILES | Cytotoxicity, times more cytotoxic than β-arbutin [4] | Effect on mushroom-derived tyrosinase activity ([5]; Tokkaihei No. 5-932) | Inhibition of mushroom-derived tyrosinase ([5]; Tokkaihei No. 6-153976) | Tyrosinase inhibiting activity ([5]; mushroom-derived tyrosinase, Biochem. Biotech. Biochem., 59, 143 (1995))
1 | remained virtually intact | 0% | remained virtually intact | – | – | – | – | – | – | – | – | – | – | – | OC[C@H]1O[C@@H](Oc2ccc(O)cc2)[C@H](O)[C@@H](O)[C@@H]1O [β-Arbutin, hydroquinone-β-glucopyranoside, reference compound] | – | – | – | –
2 | – | – | – | 0.6 to 10.8 h | 10.8 h | 0.8 h | 0.6 h | 0.064 | 0.903 | 1.117 | – | – | – | – | Oc1ccc(O)cc1 [Hydroquinone, hydroquinone] | about 400 times | – | – | –
3 | remained virtually intact | 87.5% | remained virtually intact | – | – | – | – | 0 | 0.013 | 0.022 | 53.3 h | 31.5 h | about 10 times | more than twice higher | OCC1OC(Oc2ccc(O)cc2)C(O)C(O)C1O [α-Arbutin, hydroquinone-α-D-glucopyranoside] | – | promotes, rather than inhibits | effective in inhibiting mushroom-derived tyrosinase | does not show tyrosinase inhibiting activity

Reference: patent US20030143251A1, “Skin preparations for external use” (priority 2000, published 2003)
